Molecules are shown by their SMILES.

From patent publication EP3623369A1, “NOVEL MORPHOLINYL AMINE COMPOUNDS FOR THE TREATMENT OF AUTOIMMUNE DISEASE” (F. Hoffmann-La Roche AG, priority 2018, dated 2020) come the findings set out here.

This assay has as its target T1, hTLR7 (Homo sapiens, UniProt Q9NYK1).
T1 sequence (Q9NYK1 27-1049): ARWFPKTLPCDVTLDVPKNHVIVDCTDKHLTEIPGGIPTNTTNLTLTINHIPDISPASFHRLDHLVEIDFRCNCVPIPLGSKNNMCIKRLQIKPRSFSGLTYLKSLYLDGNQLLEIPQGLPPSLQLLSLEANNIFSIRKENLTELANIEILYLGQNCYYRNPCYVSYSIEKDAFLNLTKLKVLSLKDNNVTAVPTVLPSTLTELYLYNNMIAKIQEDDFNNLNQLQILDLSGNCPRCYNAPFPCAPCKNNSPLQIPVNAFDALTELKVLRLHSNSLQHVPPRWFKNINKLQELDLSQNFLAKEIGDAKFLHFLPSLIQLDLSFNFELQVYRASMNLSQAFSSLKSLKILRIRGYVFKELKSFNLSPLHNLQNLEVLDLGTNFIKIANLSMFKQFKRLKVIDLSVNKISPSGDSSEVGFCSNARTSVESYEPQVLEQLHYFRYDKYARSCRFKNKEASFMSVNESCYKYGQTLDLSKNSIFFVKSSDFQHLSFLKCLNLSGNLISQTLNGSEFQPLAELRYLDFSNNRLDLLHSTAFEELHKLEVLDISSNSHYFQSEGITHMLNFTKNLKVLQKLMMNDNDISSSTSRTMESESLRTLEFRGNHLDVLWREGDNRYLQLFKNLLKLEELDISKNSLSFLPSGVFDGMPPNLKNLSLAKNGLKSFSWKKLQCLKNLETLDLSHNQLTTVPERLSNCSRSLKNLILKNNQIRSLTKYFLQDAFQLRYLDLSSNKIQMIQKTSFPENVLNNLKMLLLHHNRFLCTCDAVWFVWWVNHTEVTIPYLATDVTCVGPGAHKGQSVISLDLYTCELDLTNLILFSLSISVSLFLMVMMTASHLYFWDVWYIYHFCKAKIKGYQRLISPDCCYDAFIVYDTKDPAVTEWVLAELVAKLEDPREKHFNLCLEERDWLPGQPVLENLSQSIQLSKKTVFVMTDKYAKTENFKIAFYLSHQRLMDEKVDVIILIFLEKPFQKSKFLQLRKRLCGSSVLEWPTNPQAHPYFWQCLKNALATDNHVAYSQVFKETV
Briefly: HEK293-Blue-hTLR-7 cells assay (SEAP reporter, R848 stimulation). Format: cell-based. To be noted: HEK293-Blue-hTLR7 cells, R848, 20 hrs; 0.003 is the lowest tested concentration; read-out: HEK/hTLR7 IC50. How it is done: The following tests were carried out in order to determine the activity of the compounds of formula (I) or (Ia) in HEK293-Blue-hTLR-7/8/9 cells assay.
HEK293-Blue-hTLR-7 cells assay:
A stable HEK293-Blue-hTLR-7 cell line was purchased from InvivoGen (Cat.#: hkb-htlr7, San Diego, California, USA). These cells were originally designed for studying the stimulation of human TLR7 by monitoring the activation of NF-κB. A SEAP (secreted embryonic alkaline phosphatase) reporter gene was placed under the control of the IFN-β minimal promoter fused to five NF-κB and AP-1-binding sites. The SEAP was induced by activating NF-κB and AP-1 via stimulating HEK-Blue hTLR7 cells with TLR7 ligands. Therefore the reporter expression was declined by TLR7 antagonist under the stimulation of a ligand, such as R848 (Resiquimod), for incubation of 20 hrs. The cell culture supernatant SEAP reporter activity was determined using QUANTI-Blue™ kit (Cat.#: rep-qb1, Invivogen, San Diego, Ca, USA) at a wavelength of 640 nm, a detection medium that turns purple or blue in the presence of alkaline phosphatase.
HEK293-Blue-hTLR7 cells were incubated at a density of 250,000∼450,000 cells/mL in a volume of 170 µL in a 96-well plate in Dulbecco's Modified Eagle's medium (DMEM) containing 4.5 g/L glucose, 50 U/mL penicillin, […], […], 2 mM L-glutamine, 10% (v/v) heat-inactivated fetal bovine serum with addition of 20 µL test compound in a serial dilution in the presence of final DMSO at 1% and 10 µL of 20uM R848 in above DMEM, perform incubation under 37 °C in a CO2 incubator for 20 hrs. Then 20 µL of the supernatant from each well was incubated with 180 µL Quanti-blue substrate solution at 37 °C for 2 hrs and the absorbance was read at 620∼655 nm using a spectrophotometer. The signalling pathway that TLR7 activation leads to downstream NF-κB activation has been widely accepted, and therefore similar reporter assay was modified for evaluating TLR7 antagonist.

In the case of `C[C@@H]1CN(c2ccc(C#N)c3ncccc23)C[C@H](CN2Cc3ccc(N4C5CCC4CNC5)cc3C2)O1` [Example 43, 5-[(2S,6R)-2-[[5-(3,8-diazabicyclo[3.2.1]octan-8-yl)isoindolin-2-yl]methyl]-6-methyl-morpholin-4-yl]quinoline-8-carbonitrile], the IC50 is 60 nM.

Consider `C[C@@H]1CN(c2ccc(C#N)c3ncccc23)C[C@H](CN2Cc3ccc(N4C5CNCC4COC5)cc3C2)O1` [Example 46, 5-[(2R,6S)-2-methyl-6-[[5-(3-oxa-7,9-diazabicyclo[3.3.1]nonan-9-yl)isoindolin-2-yl]methyl]morpholin-4-yl]quinoline-8-carbonitrile], for which the IC50 turned out to be 74 nM.

With `C[C@@H]1CN(c2ccc(C#N)c3ncccc23)C[C@H](CN2Cc3ccc(N4CC5(CNC5)C4)cc3C2)O1` [Example 47, 5-[(2S,6R)-2-[[5-(2,6-diazaspiro[3.3]heptan-2-yl)isoindolin-2-yl]methyl]-6-methyl-morpholin-4-yl]quinoline-8-carbonitrile], the IC50 turned out to be 84 nM.

`CC1c2ccc(N3CCNCC3)cc2CN1C[C@H]1CN(c2ccc(C#N)c3ncccc23)C[C@@H](C)O1` (stereo partly drawn) [Example 48, 5-[(2R,6S)-2-methyl-6-[(1-methyl-5-piperazin-1-yl-isoindolin-2-yl)methyl]morpholin-4-yl]quinoline-8-carbonitrile]: the IC50 was 238 nM.

As to `C[C@@H]1CN(c2ccc(C#N)c3nccnc23)C[C@H](CN2Cc3ccc(N4CC5COCC(C4)N5)cc3C2)O1` [Example 49, 8-[(2R,6S)-2-methyl-6-[[5-(3-oxa-7,9-diazabicyclo[3.3.1]nonan-7-yl)isoindolin-2-yl]methyl]morpholin-4-yl]quinoxaline-5-carbonitrile], the IC50 was found to be 50 nM.

As to `CCOC(=O)C1CNCCN1c1ccc2c(c1)CN(C[C@H]1CN(c3ccc(C#N)c4ncccc34)C[C@@H](C)O1)C2` (stereo partly drawn) [Example 50, Ethyl 1-[2-[[(2S,6R)-4-(8-cyano-5-quinolyl)-6-methyl-morpholin-2-yl]methyl]isoindolin-5-yl] piperazine-2-carboxylate], the IC50 was determined as 85 nM.

Take `C[C@@H]1CN(c2ccc(C#N)c3ncccc23)C[C@H](CN2Cc3cc(N4CCNCC4)cc(F)c3C2)O1` [Example 59, 5-[(2S,6R)-2-[(4-fluoro-6-piperazin-1-yl-isoindolin-2-yl)methyl]-6-methyl-morpholin-4-yl]quinoline-8-carbonitrile]: the IC50 amounted to 18 nM.

For the compound `C[C@@H]1CN(c2ccc(C#N)c3nccnc23)C[C@H](CN2Cc3cnc(N4CCNCC4)cc3C2)O1` [Example 60, 8-[(2R,6S)-2-methyl-6-[(6-piperazin-1-yl-1,3-dihydropyrrolo[3,4-c]pyridin-2-yl)methyl]morpholin-4-yl]quinoxaline-5-carbonitrile], the IC50 worked out at 11 nM.

Consider `C[C@@H]1CN(c2ccc(C#N)c3ncccc23)C[C@H](CN2Cc3cnc(N4CCNCC4)cc3C2)O1` [Example 61, 5-[(2R,6S)-2-methyl-6-[(6-piperazin-1-yl-1,3-dihydropyrrolo[3,4-c]pyridin-2-yl)methyl]morpholin-4-yl]quinoline-8-carbonitrile], for which the IC50 was 23 nM.

Consider `C[C@@H]1CN(c2ccc(C#N)c3ncccc23)C[C@H](CN2Cc3cnc(N4CCNCC4)nc3C2)O1` [Example 63, 5-[(2R,6S)-2-methyl-6-[(2-piperazin-1-yl-5,7-dihydropyrrolo[3,4-d]pyrimidin-6-yl)methyl]morpholin-4-yl]quinoline-8-carbonitrile], for which the IC50 came to 13 nM.

In the case of `C[C@@H]1CN(c2ccc(C#N)c3ncccc23)C[C@H](CN2Cc3ccc(N4CCN[C@@H](C)C4)cc3C2)O1` [Example 64, 5-[(2R,6S)-2-methyl-6-[[5-[(3S)-3-methylpiperazin-1-yl]isoindolin-2-yl]methyl]morpholin-4-yl]quinoline-8-carbonitrile], the IC50 stood at 40 nM.

In the case of `C[C@@H]1CN(c2ccc3c(c2)CN(C[C@H]2CN(c4ccc(C#N)c5nccnc45)C[C@@H](C)O2)C3)CCN1` [Example 65, 8-[(2R,6S)-2-methyl-6-[[5-[(3R)-3-methylpiperazin-1-yl]isoindolin-2-yl]methyl]morpholin-4-yl] quinoxaline-5-carbonitrile], the IC50 was 8 nM.

In the case of `C[C@@H]1CN(c2ccc(C#N)c3nccnc23)C[C@H](CN2Cc3ccc(N4CCN[C@@H](C)C4)cc3C2)O1` [Example 66, 8-[(2R,6S)-2-methyl-6-[[5-[(3S)-3-methylpiperazin-1-yl]isoindolin-2-yl]methyl]morpholin-4-yl]quinoxaline-5-carbonitrile], the IC50 was 6 nM.

Turning to `COC(=O)C1CN(c2ccc3c(c2)CN(C[C@H]2CN(c4ccc(C#N)c5ncccc45)C[C@@H](C)O2)C3)CCN1` (stereo partly drawn) [Example 67, Methyl 4-[2-[[(2S,6R)-4-(8-cyano-5-quinolyl)-6-methyl-morpholin-2-yl]methyl]isoindolin-5-yl] piperazine-2-carboxylate], the IC50 amounted to 56 nM.

Consider `C[C@@H]1CN(c2ccc(C#N)c3ncccc23)C[C@H](CN2Cc3cc(N4CCN(C)CC4)cc(F)c3C2)O1` [Example 69, 5-[(2S,6R)-2-[[4-fluoro-6-(4-methylpiperazin-1-yl)isoindolin-2-yl]methyl]-6-methyl-morpholin-4-yl]quinoline-8-carbonitrile], for which the IC50 amounted to 43 nM.

Consider `C[C@@H]1CN(c2ccc(C#N)c3ncccc23)C[C@H](CN2CCc3cc(N4CCNCC4)ncc3C2)O1` [Example 70, 5-[(2R,6S)-2-methyl-6-[(6-piperazin-1-yl-3,4-dihydro-1H-2,7-naphthyridin-2-yl)methyl]morpholin-4-yl]quinoline-8-carbonitrile], for which the IC50 worked out at 14 nM.

As to `C[C@@H]1CN(c2ccc3c(c2)CN(C[C@H]2CN(c4ccc(C#N)c5ncccc45)C[C@@H](C)O2)C3)C[C@H](C)N1` [Example 71, 5-[(2R,6S)-2-methyl-6-[[5-[(3R,5S)-3,5-dimethylpiperazin-1-yl]isoindolin-2-yl]methyl]morpholin-4-yl]quinoline-8-carbonitrile], the IC50 is 108 nM.

Turning to `C[C@@H]1CN(c2ccc(C#N)c3ncccc23)C[C@H](CN2Cc3ccc(N4CC5COCC(C4)N5)cc3C2)O1` [Example 72, 5-[(2R,6S)-2-methyl-6-[[5-(3-oxa-7,9-diazabicyclo[3.3.1]nonan-7-yl)isoindolin-2-yl]methyl]morpholin-4-yl]quinoline-8-carbonitrile], the IC50 is 45 nM.

Consider `C[C@@H]1CN(c2ccc(C#N)c3ncccc23)C[C@H](CN2Cc3ccc(N4CCNCC4CO)cc3C2)O1` (stereo partly drawn) [Example 73, 5-[(2S,6R)-2-[[5-[2-(hydroxymethyl)piperazin-1-yl]isoindolin-2-yl]methyl]-6-methyl-morpholin-4-yl]quinoline-8-carbonitrile], for which the IC50 came to 48 nM.

`C[C@@H]1CN(c2ccc(C#N)c3ncccc23)C[C@H](CN2Cc3ccc(CN4CCCCC4)cc3C2)O1` [Example 74, 5-[(2R,6S)-2-methyl-6-[[5-(1-piperidylmethyl)isoindolin-2-yl]methyl]morpholin-4-yl]quinoline-8-carbonitrile]: the IC50 stood at 59 nM.
